Experimental data reported in paper PMC4015959, “The Structural and Functional Basis of Catalysis Mediated by NAD(P)H:acceptor Oxidoreductase (FerB) of Paracoccus denitrificans” (PLoS ONE, 2014).
Where “and” joins values, the source holds several entries; their conditions need not be identical. Equal entries are not always repeated.

Assays:
[1] = system: Cc1cc2nc3c(=O)[nH]c(=O)nc-3n(C[C@H](O)[C@H](O)[C@H](O)COP(=O)(O)OP(=O)(O)OC[C@H]3O[C@@H](n4cnc5c(N)ncnc54)[C@H](O)[C@@H]3O)c2cc1C; test: purified protein, by the assay type; type: biochemical, Paracoccus denitrificans; conditions: other: NADH as donor; pH 7.4; 30.0 °C
Protocol: (§1) The kinetic parameters ± standard error were determined by fitting the data to the appropriate kinetic equation using nonlinear regression and the program Microcal Origin (version 5.0).
(§2) Measurements were performed at 30 °C with 61 nM enzyme in 25 mM Tris-HCl buffer (pH 7.4).

[2] = system: Cc1cc2nc3c(=O)[nH]c(=O)nc-3n(C[C@H](O)[C@H](O)[C@H](O)COP(=O)(O)O)c2cc1C; test: purified protein, by the assay type; type: biochemical, Paracoccus denitrificans; conditions: other: NADH as donor
Protocol: as §1, §2

[3] = system: Cc1cc2nc3c(=O)[nH]c(=O)nc-3n(C[C@H](O)[C@H](O)[C@H](O)CO)c2cc1C; test: purified protein, by the assay type; type: biochemical, Paracoccus denitrificans; conditions: other: NADH as donor; pH 7.4; 30.0 °C
Protocol: as §1, §2

[4] = target: FerBHis6 wild-type and mutant variants; test: Steady-state kinetics of NADH oxidation with UQ-0 as acceptor (quinone reductase activity); type: biochemical, Paracoccus denitrificans; conditions: UQ-0 100 µM, pH 7.4, 30 °C
Protocol: as §1

[5] = target: FerB (ferric reductase B, NAD(P)H:acceptor oxidoreductase) of Paracoccus denitrificans with a C-terminal six-histidine tag (Paracoccus denitrificans) (UniProt P84469); test: SAXS; 5.0 mg/mL protein, 290.15 K, buffer of the last purification step; dimer to tetramer; volume fractions by OLIGOMER
[6] = target: FerB (ferric reductase B, NAD(P)H:acceptor oxidoreductase) of Paracoccus denitrificans with a C-terminal six-histidine tag (Paracoccus denitrificans) (UniProt P84469); test: SEC; Superose 12, 0.1 mL of 0.5 mg/mL protein, 25 mM Tris-HCl pH 7.4, 0.5 mL/min, calibrated with marker proteins; holoenzyme
[7] = target: FerB (ferric reductase B, NAD(P)H:acceptor oxidoreductase) of Paracoccus denitrificans with a C-terminal six-histidine tag (Paracoccus denitrificans) (UniProt P84469); test: SAXS; […] protein, 290.15 K, buffer of the last purification step; dimer to tetramer; volume fractions by OLIGOMER
[8] = target: FerB (ferric reductase B, NAD(P)H:acceptor oxidoreductase) of Paracoccus denitrificans with a C-terminal six-histidine tag (Paracoccus denitrificans) (UniProt P84469); test: SAXS; 1.25 mg/mL protein, 290.15 K, buffer of the last purification step; dimer to tetramer; volume fractions by OLIGOMER
FerBHis6 = test: Stopped-flow reduction of enzyme-bound flavin cofactor by NADH; type: biochemical, Paracoccus denitrificans
Protocol: Stopped-flow spectrophotometry was performed on a SFM-3000 (Bio-Logic) stopped-flow system equipped with a 0.8- × 0.8-mm cuvette (FC-08). The temperature was kept constant at 10 °C with a thermostating water bath. Six measurements were averaged for each sample. […] Results from the stopped-flow experiments were analyzed in the Bio-Kine software (BioLogic).

FerBHis6-R95A = target: T1, FerBHis6-R95A (Paracoccus denitrificans, UniProt A1B9E3, R95A); test: NADH:flavin oxidoreductase initial-velocity kinetics of R95A mutant; type: biochemical
T1 sequence (A1B9E3 1-182 R95A): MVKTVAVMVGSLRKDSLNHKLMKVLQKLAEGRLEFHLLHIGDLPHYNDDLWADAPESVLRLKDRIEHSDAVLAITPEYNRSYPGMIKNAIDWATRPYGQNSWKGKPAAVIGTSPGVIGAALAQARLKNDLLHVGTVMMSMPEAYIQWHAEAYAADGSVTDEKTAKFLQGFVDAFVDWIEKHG
Protocol: as §1, §2

[9] = cited from earlier work
FerB = test: Activity toward external FMN, wild-type enzyme; type: biochemical, Paracoccus denitrificans
Protocol: as §1

[10] = system: EmoB of Mesorhizobium sp. bacterium BNC1; conditions: cited from earlier work
[11] = Standard redox potential by xanthine/xanthine oxidase method of Massey with reference dye; type: physicochemical; conditions: 50 µM free FMN, pH 7.0
apoFerBHis6 = apoFerBHis6 (Paracoccus denitrificans, UniProt A1B9E3); test: Fluorescence titration of free flavin by apoenzyme (dissociation constants); type: binding; conditions: for Kd: 25 mM Tris-HCl, pH 7.4, 25 °C, read-out: Kd of apoFerBHis6-flavin complex
Protocol: Dissociation constants of apoenzyme-flavin complexes were determined from fluorescence titration with excitation at 450 nm by adding of constant amount of the wild-type and mutant variants of apoFerBHis6 into 25 mM Tris-HCl buffer (pH 7.4) with 100 nM FMN or riboflavin. Decreasing emission intensities at 519 nm were recorded on Luminescence Spectrotometer LS-50B (Perkin-Elmer). Series of different concentrations of FMN standard was used for setting of a calibration curve on fluorescence intensity. The dissociation constants Kd were calculated according to [22] and converted to the binding Gibbs energy changes ΔGb = -RTln (1/Kd) (where R, gas constant, T, absolute temperature), from which the variation of Gibbs energy due to mutation (ΔΔGb) was computed as the difference in binding energy between mutant and wild-type enzyme (ΔΔGb = ΔGb(mut) - ΔGb(wt)).

WrbA protein of E. coli = system: WrbA protein of E. coli; parameters: method as in PMID 9694845; conditions: cited from earlier work
B. subtilis YhdA = system: B. subtilis YhdA; parameters: method as in PMID 16752898; conditions: cited from earlier work
[12] = parameters: method as in PMID 17029888; conditions: aqueous solutions; cited from earlier work
[13] = FMN self-association in aqueous solution by 1H NMR chemical shift (literature); type: physicochemical; conditions: order of magnitude, from association constant of ref 46

Molecule: FerBHis6-R95A (Paracoccus denitrificans PD1222; R95A)
- Km [1]: 95 ± 7 µM
- kcat [1]: 38 ± 1 s⁻¹
- kcat ([2]; 30 °C, 25 mM Tris-HCl pH 7.4): 50 ± 5 s⁻¹
- Km ([2]; pH 7.4, 30.0 °C): 111 ± 15 µM
- Km [3]: 59 ± 12 µM
- kcat [3]: 75 ± 10 s⁻¹

Molecule: [2H][C@H]1C=CN(C2OC(COP(=O)(O)OP(=O)(O)OCC3OC(n4cnc5c(N)ncnc54)C(O)C3O)C(O)C2O)C=C1C(N)=O (stereo partly drawn) [[4S-^2H]NADH]
- kinetic isotope effect for enzyme-catalyzed UQ-0 reduction [4]: 5.45±0.21

Molecule: FerB (ferric reductase B, NAD(P)H:acceptor oxidoreductase) of Paracoccus denitrificans with a C-terminal six-histidine tag (from UniProt P84469 1-27) (enzyme)
- partial volume fraction of dimer [5]: 9%
- partial volume fraction of tetramer [5]: 91%
- stoichiometry N [6]: 1.88 subunits
- partial volume fraction of dimer [7]: 13%
- partial volume fraction of tetramer [7]: 87%
- partial volume fraction of dimer [8]: 34%
- partial volume fraction of tetramer [8]: 66%

Molecule: NC(=O)C1=CN([C@@H]2O[C@H](COP(=O)(O)OP(=O)(O)OC[C@H]3O[C@@H](n4cnc5c(N)ncnc54)[C@H](O)[C@@H]3O)[C@@H](O)[C@H]2O)C=CC1 [NADH]
- NADH concentration giving half maximal effect on kobs (FerBHis6; 30 µM FerBHis6, 1–5000 µM NADH, 10 °C, anaerobic): 6.4 ± 1.0 µM
- pH dependence of kobs (FerBHis6; 5 mM NADH, pH interval 3–9): did not depend on pH
- limit of kobs (apparent electron-transfer rate constant for FerB-NADH complex) (FerBHis6; 10 °C, anaerobic): 147.0 ± 0.4 s⁻¹ and ~140 s⁻¹
- Michaelis constant for NADH (FerBHis6-R95A; FMN as acceptor, bisubstrate ping-pong fit): 33 ± 7 µM

Molecule: O=C1/C(=C2\Nc3ccc(S(=O)(=O)[O-])cc3C2=O)Nc2ccc(S(=O)(=O)[O-])cc21.[Na+].[Na+] [indigo carmine]
- E° ´ of reference dye [9]: −125 mV

Molecule: COC1=C(OC)C(=O)C(C)=CC1=O [UQ-0, 2,3-dimethoxy-5-methyl-1,4-bezoquinone]
- time to complete oxidation of dithionite pre-reduced flavin cofactor (FerBHis6; 200 µM UQ-0, within stopped-flow dead time, all proteins): ≤ 0.4 ms

Molecule: [2H][C@@H]1C=CN(C2OC(COP(=O)(O)OP(=O)(O)OCC3OC(n4cnc5c(N)ncnc54)C(O)C3O)C(O)C2O)C=C1C(N)=O (stereo partly drawn) [[4R-^2H]NADH]
- kinetic isotope effect for enzyme-catalyzed UQ-0 reduction [4]: 1.07±0.13

Molecule: Nc1ccc2nc3ccc(N)cc3[n+](-c3ccccc3)c2c1.[Cl-] [phenosafranin]
- E° ´ of reference dye [9]: −252 mV

Molecule: Cc1cc2nc3c(=O)[nH]c(=O)nc-3n(C[C@H](O)[C@H](O)[C@H](O)COP(=O)(O)O)c2cc1C [FMN, flavin mononucleotide]
- ratio of kcat toward external FMN to kcat toward UQ-0 (FerB): about 0.006
- kcat of FMN reduction ([10]; calculated from Vmax using subunit mass 21 412 Da): 397 s⁻¹
- Vmax [10]: 1111 µmol/min/mg
- E° ´ of free flavin [11]: −212 mV
- Kd (apoFerBHis6): 0.027 ± 0.002 µM
- Gibbs binding energy coming from the phosphate (apoFerBHis6; calculated from Kd values of FMN and riboflavin): -13.6 kJ/mol
- total Gibbs binding energy (apoFerBHis6; calculated from experimental Kd): -43.2 kJ/mol
- E° ´ published value ([9]; free FMN): −207 mV
- Kd (WrbA protein of E. coli): 2 µM
- kinetic solvent isotope effect kobs(H2O)/kobs(D2O) (FerBHis6; 99% deuterium oxide, buffer pH 6.8): 1.9
- kcat of FMN reduction (B. subtilis YhdA): 60 to 70 s⁻¹
- self-association constant [12]: 20 to 100 M⁻¹
- expected dissociation constant of self-association [13]: ~10 mM
- kcat (catalytic constant) of flavin reduction (FerBHis6-R95A; NADH as donor, 30 °C, 25 mM Tris-HCl pH 7.4): 50 s⁻¹
- ratio of kcat toward external FMN to kcat toward UQ-0 (FerBHis6-R95A; R95A mutation): 0.32

Molecule: Cc1cc2nc3c(=O)[nH]c(=O)nc-3n(C[C@H](O)[C@H](O)[C@H](O)CO)c2cc1C [riboflavin]
- Kd (apoFerBHis6): 6.58 µM and 6.6 µM
- increase in Kd relative to FMN (apoFerBHis6; riboflavin vs FMN): 244 fold

Molecule: [2H]C1C=CN(C2OC(COP(=O)(O)OP(=O)(O)OCC3OC(n4cnc5c(N)ncnc54)C(O)C3O)C(O)C2O)C=C1C(N)=O (centres unmarked) [deuterated NADH]
- kinetic isotope effect for enzyme-catalyzed UQ-0 reduction [4]: about 6

Molecule: O=C1c2ccccc2C(=O)c2cc(S(=O)(=O)O)ccc21 [anthraquinone-2-sulfonate]
- E° ´ of reference dye [9]: −225 mV
